Experimental data from PubChem BioAssay AID1259411 (Chemical Carcinogenesis Research Information System (CCRIS), 2018).
Active and inactive are the calls of the source. No rule for the calls is given here. *1 amine or outer side, *2 acyl side, *3 side chain or, on linkers, in order; H or OH if unused. Where a SMILES comes first, the peptide text is derived from it. Bridges are numbered along the chain shown (N, C = ends). Roman numbers before positions name the chains, in order. [ ]: non-standard residue; d: D form. Actinocin(9to1) = Cc1c2oc3c(C)ccc(C(=O)[*:1])c3nc-2c(C(=O)[*:2])c(N)c1=O; NMeV = CN[C@H](C(=O)O)C(C)C; Sar = CNCC(=O)O

Tested on: rodent carcinogenicity bioassays, tumor incidence
Test: CCRIS carcinogenicity studies
Procedure, shortened: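 Archive of carcinogenicity, mutagenicity, tumor promotion and tumor inhibition results drawn from journals, NCI reports and other sources, expert-reviewed; covers 1985-2011 and is no longer updated.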

## O=P(OCCCl)(OCCCl)OCCCl
Species: MOUSE, Strain/Sex: B6C3F1/FEMALE, Route: GAVAGE, Dose: 0, 175, 350 MG/KG IN CORN OIL 5 D/WK FOR 103 (STUDY DURATION: 104 WK), Dose: 0, 175, 350 MG/KG IN CORN OIL 5 D/WK FOR 103 (STUDY DURATION: 104 WK), Tumor Site: Type of Lesion: HARDERIAN GLAND: ADENOMA OR CARCINOMA
  carcinogen call: equivocal
Species: MOUSE, Strain/Sex: B6C3F1/MALE, Route: GAVAGE, Dose: 0, 175, 350 MG/KG IN CORN OIL 5 D/WK FOR 103 (STUDY DURATION: 104 WK), Dose: 0, 175, 350 MG/KG IN CORN OIL 5 D/WK FOR 103 (STUDY DURATION: 104 WK), Tumor Site: Type of Lesion: KIDNEY (RENAL TUBULE): ADENOMA, CARCINOMA
  carcinogen call: equivocal
Species: MOUSE, Strain/Sex: DDY/FEMALE, Route: ORAL, Dose: 0, 0.012, 0.06, 0.3, 1.5% IN DIET FOR 18 MO (STUDY DURATION: 18 MO), Dose: 0, 0.012, 0.06, 0.3, 1.5% IN DIET FOR 18 MO (STUDY DURATION: 18 MO), Tumor Site: Type of Lesion: HEMATOPOIETIC SYSTEM: LEUKEMIA, FORESTOMACH: PAPILLOMA, CARCINOMA
  carcinogen call: active; positive
Species: MOUSE, Strain/Sex: DDY/MALE, Route: ORAL, Dose: 0, 0.012, 0.06, 0.3, 1.5% IN DIET FOR 18 MO (STUDY DURATION: 18 MO), Dose: 0, 0.012, 0.06, 0.3, 1.5% IN DIET FOR 18 MO (STUDY DURATION: 18 MO), Tumor Site: Type of Lesion: LIVER: HEPATOCELLULAR ADENOMA, HEPATOCELLULAR CARCINOMA, KIDNEY: RENAL CELL ADENOMA, RENAL CELL CARCINOMA
  carcinogen call: active; positive
Species: MOUSE, Strain/Sex: SLC:DDY/FEMALE, Route: DERMAL, Dose: 0, 5, 50% IN ETHANOL 2/WK FOR 79 WK (STUDY DURATION: 18 MO), Dose: 0, 5, 50% IN ETHANOL 2/WK FOR 79 WK (STUDY DURATION: 18 MO)
  carcinogen call: inactive; negative
Species: RAT, Strain/Sex: F344/FEMALE, Route: GAVAGE, Dose: 0, 44, 88 MG/KG IN CORN OIL 5 D/WK FOR 103 (STUDY DURATION: 104 WK), Dose: 0, 44, 88 MG/KG IN CORN OIL 5 D/WK FOR 103 (STUDY DURATION: 104 WK), Tumor Site: Type of Lesion: KIDNEY (RENAL TUBULE): ADENOMA
  carcinogen call: active; positive
Species: RAT, Strain/Sex: F344/MALE, Route: GAVAGE, Dose: 0, 44, 88 MG/KG IN CORN OIL 5 D/WK FOR 103 (STUDY DURATION: 104 WK), Dose: 0, 44, 88 MG/KG IN CORN OIL 5 D/WK FOR 103 (STUDY DURATION: 104 WK), Tumor Site: Type of Lesion: KIDNEY (RENAL TUBULE): ADENOMA OR CARCINOMA, HEMATOPOIETIC SYSTEM: LEUKEMIA (MONONUCLEAR)
  carcinogen call: active; positive

## Cc1c2oc3c(C)ccc(C(=O)N[C@@H]4C(=O)N[C@H](C(C)C)C(=O)N5CCC[C@H]5C(=O)N(C)CC(=O)N(C)[C@@H](C(C)C)C(=O)O[C@@H]4C)c3nc-2c(C(=O)N[C@@H]2C(=O)N[C@H](C(C)C)C(=O)N3CCC[C@H]3C(=O)N(C)CC(=O)N(C)[C@@H](C(C)C)C(=O)O[C@@H]2C)c(N)c1=O (I: T[dV]P[Sar][NMeV] / II: T[dV]P[Sar][NMeV]; ester I:1-I:C, II:1-II:C; linker I:N-II:N via Actinocin(9to1))
Species: RAT, Route: INTRAPERITONEAL, Tumor Site: Type of Lesion: PERITONEAL CAVITY
  carcinogen call: active; positive

## N[C@H](CCC(=O)N[C@H](Cc1c[nH]c2ccccc12)C(=O)O)C(=O)O
Species: MOUSE, Strain/Sex: C57BL.CBA, Route: SC, Dose: 0.0145 AND 0.145 MG/KG 2X WK FOR 104 WK (STUDY DURATION: 104 WK)
  carcinogen call: inactive; negative
Species: RAT, Strain/Sex: WISTAR, Route: SC, Dose: 0.0145 AND 0.145 MG/KG 2X WK FOR 104 WK (STUDY DURATION: 104 WK)
  carcinogen call: inactive; negative

## CCN(CC(=O)O)N=O
Species: MOUSE, Strain/Sex: BALB/C/MALE, Route: ORAL, Dose: 0, 1000, 2000 PPM IN DRINKING WATER FOR 2 WK (STUDY DURATION: 52 WK), Dose: 0, 1000, 2000 PPM IN DRINKING WATER FOR 2 WK (STUDY DURATION: 52 WK)
  carcinogen call: inactive; negative
Species: RAT, Strain/Sex: WISTAR/MALE, Route: ORAL, Dose: 0, 1000, 2000 PPM IN DRINKING WATER FOR 2 WK (STUDY DURATION: 52 WK), Dose: 0, 1000, 2000 PPM IN DRINKING WATER FOR 2 WK (STUDY DURATION: 52 WK)
  carcinogen call: inactive; negative

## O[C@@H]1C=CC=C[C@H]1O
Species: MOUSE, Strain/Sex: SWISS/FEMALE, Route: INTRAPERITONEAL, Dose: 0, 10, 50 UMOL ADMINISTERED AS 3 UNEQUAL DOSES (1/7, 2/7, AND 4/7 OF THE TOTAL DOSE) OVER A 2-WK PERIOD (STUDY DURATION:, Dose: 0, 10, 50 UMOL ADMINISTERED AS 3 UNEQUAL DOSES (1/7, 2/7, AND 4/7 OF THE TOTAL DOSE) OVER A 2-WK PERIOD (STUDY DURATION:
  carcinogen call: inactive; negative
Species: MOUSE, Strain/Sex: SWISS/MALE, Route: INTRAPERITONEAL, Dose: 0, 10, 50 UMOL ADMINISTERED AS 3 UNEQUAL DOSES (1/7, 2/7, AND 4/7 OF THE TOTAL DOSE) OVER A 2-WK PERIOD (STUDY DURATION:, Dose: 0, 10, 50 UMOL ADMINISTERED AS 3 UNEQUAL DOSES (1/7, 2/7, AND 4/7 OF THE TOTAL DOSE) OVER A 2-WK PERIOD (STUDY DURATION:
  carcinogen call: inactive; negative

## CC(=O)N(O)c1ccc(/C=C/c2ccccc2)cc1
Species: RAT, Strain/Sex: STRAIN-CD/FEMALE, Route: INTRAPERITONEAL, Dose: 0, 10 UMOL/KG BW 2/WK FOR 6 WK (STUDY DURATION: 62 WK), Tumor Site: Type of Lesion: LIVER: NEOPLASTIC NODULE, MAMMARY GLAND: TUMOR, EAR DUCT: TUMOR, PITUITARY GLAND: CARCINOMA, Tumor Site: Type of Lesion: LIVER: NEOPLASTIC NODULE, MAMMARY GLAND: TUMOR, EAR DUCT: TUMOR, PITUITARY GLAND: CARCINOMA
  carcinogen call: active; positive
Species: RAT, Strain/Sex: STRAIN-CD/MALE, Route: INTRAPERITONEAL, Dose: 0, 10 UMOL/KG BW 2/WK FOR 6 WK (STUDY DURATION: 62 WK), Tumor Site: Type of Lesion: TESTICLE: MESOTHELIOMA, PANCREAS(ACINUS): ADENOMA, EAR DUCT: CARCINOMA, Tumor Site: Type of Lesion: TESTICLE: MESOTHELIOMA, PANCREAS(ACINUS): ADENOMA, EAR DUCT: CARCINOMA
  carcinogen call: active; positive

## COc1ccc([N+](=O)[O-])cc1N
Species: MOUSE, Strain/Sex: B6C3F1/FEMALE, Route: ORAL, Dose: 0, 0.8% IN DIET FOR 78 WK (STUDY DURATION: 97 WK)
  carcinogen call: inactive; negative
Species: MOUSE, Strain/Sex: B6C3F1/FEMALE, Route: ORAL, Dose: 0, 1.6% IN DIET FOR 15 WK FOLLOWING BY 0.4% FOR LAST 63 WK (STUDY DURATION: 97 WK), Tumor Site: Type of Lesion: LIVER: HEPATOCELLULAR CARCINOMA
  carcinogen call: active; positive
Species: MOUSE, Strain/Sex: B6C3F1/MALE, Route: ORAL, Dose: 0, 0.8% IN DIET FOR 78 WK (STUDY DURATION: 97 WK), Tumor Site: Type of Lesion: LIVER: HEPATOCELLULAR CARCINOMA
  carcinogen call: equivocal
Species: MOUSE, Strain/Sex: B6C3F1/MALE, Route: ORAL, Dose: 0, 1.6% IN DIET FOR FIRST 15 WK FOLLOWING BY 0.4% FOR 63 WK (STUDY DURATION: 97 WK)
  carcinogen call: inactive; negative
Species: RAT, Strain/Sex: F344/FEMALE, Route: ORAL, Dose: 0, 0.4, 0.8% IN DIET FOR 78 WK (STUDY DURATION: 106-108 WK), Dose: 0, 0.4, 0.8% IN DIET FOR 78 WK (STUDY DURATION: 106-108 WK), Tumor Site: Type of Lesion: CLITORAL GLAND: CARCINOMA (NOS), CARCINOMA (NOS) OR SQUAMOUS CELL CARCINOMA, ADENOMA (NOS) OR PAPILLARY ADENOMA OR CARCI
  carcinogen call: active; positive
Species: RAT, Strain/Sex: F344/MALE, Route: ORAL, Dose: 0, 0.4, 0.8% IN DIET FOR 78 WK (STUDY DURATION: 102-109 WK), Dose: 0, 0.4, 0.8% IN DIET FOR 78 WK (STUDY DURATION: 102-109 WK), Tumor Site: Type of Lesion: INTEGUMENTARY SYSTEM (SKIN): BASAL CELL CARCINOMA, TRICHOEPITHELIOMA;INTEGUMENTARY SYSTEM (EXCLUDING SKIN OF EAR): SQUAM
  carcinogen call: active; positive

## OO
Species: MOUSE, Strain/Sex: C57BL/MALE,FEMALE, Route: ORAL, Dose: 0, 0.1%, 0.4% IN DRINKING WATER (STUDY DURATION: 108 WK), Dose: 0, 0.1%, 0.4% IN DRINKING WATER (STUDY DURATION: 108 WK), Tumor Site: Type of Lesion: DUODENUM: ADENOMA, ADENOCARCINOMA
  carcinogen call: active; positive
